Data on one compound can be found in paper PMC6339655 (International Journal of Nanomedicine, 2019).

Molecules are shown by their SMILES. In brackets after ≈: the same amount, converted by molar mass.

The test system of the test is C. albicans (ATCC-90028). Put plainly: MIC by colony-forming assay. The test is classed as cell-based. Conditions: Candida albicans, ATCC90028, 48 h.

For `C[C@@H]1C/C=C/C=C/C=C/C=C/[C@H](O[C@@H]2O[C@H](C)[C@@H](O)[C@H](N)[C@@H]2O)C[C@@H]2O[C@](O)(C[C@@H](O)C[C@H]3O[C@@H]3/C=C/C(=O)O1)C[C@H](O)[C@H]2C(=O)O` [natamycin], the lowest concentration to inhibit growth (MIC) was 64 mg/L (≈ 96.1 µM).
